Results: US20210255193A1, “LYSINE REACTIVE PROBES AND USES THEREOF” (The Scripps Research Institute, priority 2017, published 2021)
Each block holds one molecule with its values, some of them ahead of it.

Tests used:
[1] = target: T1, RPL9P9 60S ribosomal protein L9 (Homo sapiens, UniProt P32969); experiment: competitive isoTOP-ABPP; type: binding; settings: for isoTOP-ABPP ratio (R) at liganded lysine P32969_K82 / isoTOP-ABPP reactivity ratio at lysine P32969_K82: 50 uM, in vitro; for isoTOP-ABPP ratio (R) at liganded lysine P32969_K82: sol, 231; for isoTOP-ABPP ratio, lysine P32969_K82: 50 uM_231_sol_in vitro; for isoTOP-ABPP reactivity ratio at lysine P32969_K82: 231 sol
T1 construct: isoTOP-ABPP experiments performed in cell lysates (in vitro); endogenous in cells; host or cells: soluble proteome of human cancer cell lines (MDA-MB-231; Ramos and Jurkat also prepared)
Procedure, shortened: (§1)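 Cell lysate treated in vitro with fragments (50 μM activated esters, 100 μM guanidinylating agents) or DMSO, labelled 1 h at ambient temperature with 0.1 mM STP-alkyne, CuAAC-tagged with light/heavy TEV tags, analysed by MS. R = DMSO/compound MS1 peak-area ratio; lysines with R≥4 called liganded.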

[2] = target: T2, UBA6 Ubiquitin-like modifier-activating enzyme 6 (Homo sapiens, UniProt A0AVT1); experiment: competitive isoTOP-ABPP; type: binding; settings: for R value (DMSO/fragment) for probe 1 labeling: A0AVT1_K409
T2 construct: isoTOP-ABPP experiments performed in cell lysates (in vitro); endogenous in cells; host or cells: MDA-MB-231 soluble lysate
T2 sequence (A0AVT1 1-1052): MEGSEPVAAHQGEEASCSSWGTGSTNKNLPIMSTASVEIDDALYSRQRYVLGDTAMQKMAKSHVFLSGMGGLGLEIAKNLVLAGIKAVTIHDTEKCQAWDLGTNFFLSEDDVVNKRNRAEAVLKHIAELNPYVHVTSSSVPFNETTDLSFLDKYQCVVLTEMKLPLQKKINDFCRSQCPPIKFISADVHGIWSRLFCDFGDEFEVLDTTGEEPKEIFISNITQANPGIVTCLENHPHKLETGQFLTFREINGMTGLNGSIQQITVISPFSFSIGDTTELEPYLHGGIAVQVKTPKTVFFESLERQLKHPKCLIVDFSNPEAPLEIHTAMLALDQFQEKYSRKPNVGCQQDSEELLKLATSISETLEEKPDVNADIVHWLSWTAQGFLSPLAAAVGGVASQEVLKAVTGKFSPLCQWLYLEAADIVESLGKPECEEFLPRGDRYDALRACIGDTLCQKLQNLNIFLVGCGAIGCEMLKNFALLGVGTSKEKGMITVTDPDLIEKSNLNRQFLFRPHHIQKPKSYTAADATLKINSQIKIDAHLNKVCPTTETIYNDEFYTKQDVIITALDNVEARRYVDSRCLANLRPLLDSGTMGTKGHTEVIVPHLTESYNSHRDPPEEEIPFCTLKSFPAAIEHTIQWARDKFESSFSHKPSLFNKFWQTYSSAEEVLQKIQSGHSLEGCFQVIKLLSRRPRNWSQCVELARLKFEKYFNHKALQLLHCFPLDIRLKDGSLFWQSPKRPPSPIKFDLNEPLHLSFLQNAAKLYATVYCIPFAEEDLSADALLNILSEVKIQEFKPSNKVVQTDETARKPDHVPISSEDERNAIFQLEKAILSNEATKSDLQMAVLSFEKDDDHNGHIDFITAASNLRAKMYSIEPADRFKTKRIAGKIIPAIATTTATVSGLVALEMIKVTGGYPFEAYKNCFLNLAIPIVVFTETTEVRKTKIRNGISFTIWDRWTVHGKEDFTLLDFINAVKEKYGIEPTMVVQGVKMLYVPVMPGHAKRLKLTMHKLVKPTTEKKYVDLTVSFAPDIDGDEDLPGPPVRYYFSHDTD
Procedure, shortened: as §1

Compound: CC(C)(C)OC(=O)NCCCC(=O)Oc1ccc([N+](=O)[O-])cc1[N+](=O)[O-] [fragment 41, 2,4-Dinitrophenyl 4-((tert-butoxycarbonyl)amino)butanoate]
isoTOP-ABPP ratio (R) at liganded lysine P32969_K82 [1]: 0.9
isoTOP-ABPP ratio (R) at liganded lysine A0AVT1_K409 ([2]; 50 uM, in vitro, sol, 231): 6.6

R value (DMSO/fragment) for probe 1 labeling ([2]; 50 uM, 231 sol, in vitro): 1.6
Compound: Cn1cc(CC(=O)Oc2c(F)c(F)c(F)c(F)c2F)c2ccccc21 [fragment 22, Pentafluorophenyl 2-(1-methyl-1H-indol-3-yl)acetate]

Compound: O=C(Oc1ccc([N+](=O)[O-])cc1[N+](=O)[O-])c1ccc2ccccc2n1 [fragment 35, 2,4-Dinitrophenyl quinoline-2-carboxylate]
isoTOP-ABPP ratio (R) at liganded lysine P32969_K82 [1]: 0.8

Compound: O=C(CCc1ccc2c(c1)OCO2)Oc1ccc([N+](=O)[O-])cc1[N+](=O)[O-] [fragment 45, 2,4-Dinitrophenyl 3-(benzo[d][1,3]dioxol-5-yl)propanoate]
isoTOP-ABPP ratio, lysine P32969_K82 [1]: 1.0
isoTOP-ABPP ratio, lysine A0AVT1_K409 ([2]; 50 uM_231_sol_in vitro): 6.3

R value (DMSO/fragment) for probe 1 labeling ([2]; 50 uM, 231 sol, in vitro): 1.3
Compound: COc1cc(CCC(=O)Oc2c(F)c(F)c(F)c(F)c2F)cc(OC)c1OC [fragment 23, Pentafluorophenyl 3-(3,4,5-trimethoxyphenyl)propanoate]

Compound: O=C(ON1C(=O)CCC1=O)c1cc(C(F)(F)F)cc(C(F)(F)F)c1 [fragment 46, 3,5-Bis(trifluoromethyl)benzoic acid NHS ester]
isoTOP-ABPP ratio, lysine P32969_K82 [1]: 0.5

Compound: O=C(Oc1ccc([N+](=O)[O-])cc1[N+](=O)[O-])c1ccc(Oc2ccccc2)cc1 [fragment 39, 2,4-Dinitrophenyl 4-phenoxybenzoate]
isoTOP-ABPP ratio (R) at liganded lysine P32969_K82 [1]: 0.7

isoTOP-ABPP reactivity ratio at lysine A0AVT1_K409 ([2]; 50 uM, 231 sol, in vitro): 1.4
Compound: O=C(Oc1c(F)c(F)c(F)c(F)c1F)c1ccc2ccccc2n1 [fragment 25, Pentafluorophenyl quinoline-2-carboxylate]

Compound: O=C(Oc1ccc([N+](=O)[O-])cc1[N+](=O)[O-])c1cc(C(F)(F)F)cc(C(F)(F)F)c1 [fragment 31, 2,4-Dinitrophenyl 3,5-bis(trifluoromethyl)benzoate]
isoTOP-ABPP reactivity ratio at lysine P32969_K82 [1]: 0.9

Compound: CC(=O)Oc1ccc([N+](=O)[O-])cc1[N+](=O)[O-] [fragment 43, 2,4-Dinitrophenyl acetate]
isoTOP-ABPP ratio (R) at liganded lysine P32969_K82 [1]: 0.9

Compound: Cn1cc(CC(=O)Oc2ccc([N+](=O)[O-])cc2[N+](=O)[O-])c2ccccc21 [fragment 32, 2,4-Dinitrophenyl 2-(1-methyl-1H-indol-3-yl)acetate]
isoTOP-ABPP reactivity ratio at lysine P32969_K82 [1]: 1.0

Compound: N#Cc1ccc(C(=O)Oc2ccc([N+](=O)[O-])cc2[N+](=O)[O-])cc1 [fragment 44, 2,4-Dinitrophenyl 4-cyanobenzoate]
isoTOP-ABPP ratio, lysine P32969_K82 [1]: 14.5

R value (DMSO/fragment) for probe 1 labeling ([2]; 50 uM, 231 sol, in vitro): 1.5
Compound: O=C(CCc1cn(-c2ccccc2)nc1-c1ccccc1)Oc1c(F)c(F)c(F)c(F)c1F [fragment 19, Pentafluorophenyl 3-(1,3-diphenyl-1H-pyrazol-4-yl)propanoate]
